Assay: Light irradiation storage test of aqueous pyrroloquinoline quinone disodium salt solution in a transparent PET container, HPLC recovery
Assay type: physicochemical
Details: used alone, without combination partner
Description: HPLC conditions: Shimadzu LC-2010 Column: YMC-Pack ODS-A Detection wavelength: 259 nm Mobile phase: 30 mM acetic acid-70 mM ammonium acetate Column temperature: 40° C. Light irradiation apparatus: A plant incubator CLH-301 manufactured by Tomy Seiko Co., Ltd. Light irradiation conditions: 30° C. and 20,000Lx All the contents of Volvic that is a commercially available PET bottle beverage, were removed and the container was washed with water. This transparent container was used as a storage container. 5 to 500 mg of BioPQQ was dissolved in 500 g of water, and the relationship between the concentration and the photodeterioration of BioPQQ was examined. First, a mixture of pyrroloquinoline quinone disodium salt and water was added to the storage container, shaken well, and then submitted to ultrasonication for 1 minute to dissolve the salt. The pH was 3.5. The prepared aqueous solution of pyrroloquinoline quinone disodium salt was stored under the above light irradiation conditions. The concentration of pyrroloquinoline quinone was analyzed by HPLC 5 days after the light irradiation. […] 20 mg of BioPQQ was dissolved in 500 g of water ([…]) in the same manner as described above. To this aqueous solution, 100 mg of Red No. 2 was further added (Example A1). […]

## O=C1O[C@H]([C@@H](O)CO)C(O)=C1O [ascorbic acid]
  photodeterioration inhibition effect (in words): has a photodeterioration inhibition effect

Reference: patent US20210267240A1, “PHOTODETERIORATION INHIBITOR, BEVERAGE COMPRISING THE SAME, AND METHOD FOR INHIBITING PHOTODETERIORATION” (Mitsubishi Gas Chemical Company, Inc., priority 2018, published 2021)
